{"source": "patent US20230339977A1", "about": "“SUBSTITUTED HETEROARYL COMPOUND, AND COMPOSITION AND APPLICATION THEREOF” (SUNSHINE LAKE PHARMA CO., LTD., priority 2020, published 2023)", "key": {"[1]": {"assay": "Stability in rat liver microsomes", "type": "in vitro ADME", "procedure": "The stability of the compounds of the present invention in human and rat liver microsomes can be tested by the following two methods:\nHuman or rat liver microsomes were incubated in polypropylene tubes in duplicate wells. A typical incubation mixture included human or rat liver microsomes (0.5 mg protein/mL), target compound (5 µM), and a total volume of 200 µL of NADPH (1.0 mM) potassium phosphate buffer (PBS, 100 mM, pH 7.4), the compound was dissolved in DMSO and diluted with PBS, the final concentration of the DMSO solution was 0.05%. Human or rat liver microsomes were incubated at 37° C. in an air-connected water bath. After pre-incubation for 3 minutes, […] was added to start the reaction. The same volume of ice-cold acetonitrile was added to terminate the reaction at different time points (0, 5, 10, 15, 30 and 60 min). Samples were stored at -80° C. until LC/MS/MS analysis.\nThe linear concentration range of each target compound was determined, and then, the concentration of the target compounds in the human or rat liver microsomes incubation mixture was determined by LC/MS/MS method.\nParallel incubations were performed using denatured microsomes as a negative control and dextromethorphan (70 µM) as a positive control. Negative control was incubated at 37° C., the reaction was terminated at different time points (0, 15 and 60 minutes); positive control was incubated at 37° C., the reaction was terminated at different time points (0, 5, 10, 15, 30 and 60 minutes). Positive and negative control samples were used in each assay to ensure the integrity of the microsomal incubation system.\nIn addition, the stability data of the compounds of the present invention in human or rat liver microsomes can also be obtained from the following tests:\nHuman or rat liver microsomes were incubated in polypropylene tubes in duplicate wells. A typical incubation mixture included human or rat liver microsomes (final concentration: 0.5 mg protein/mL), target compound (final concentration: 1.5 µM) and a total volume of 30 µL of K-buffer solution (containing 1.0 mM EDTA, 100 mM, pH 7.4). Compounds were dissolved in DMSO and diluted with K-buffer solution, the final concentration of DMSO was 0.2%. […]\nFor each reaction, in vivo intrinsic hepatic clearance CLint is extrapolated by plotting the compound concentration (expressed as a percentage) in human or rat liver microsomal incubations as a percentage relative to time zero (ref.: Naritomi Y, Terashita S, Kimura S, Suzuki A, Kagayama A, Sugiyama Y. Prediction of human hepatic clearance from in vivo animal experiments and in vitro metabolic studies with liver microsomes from animals and humans. Drug Metabolism and Disposition 2001, 29: 1316-1324.)."}, "[2]": {"assay": "Pharmacokinetic evaluation in rats after intravenous injection and oral administration", "type": "in vivo", "details": "rat, plasma; for AUC(0-t): read-out: PK AUClast; for Cmax: read-out: PK Cmax; for half-life: read-out: PK T½ (converted)", "procedure": "The analytical LC/MS/MS system includes an Agilent 1200 series vacuum degasser, a binary syringe pump, an orifice plate autosampler, a column oven, and an Agilent G6430 triple quadrupole mass spectrometer with an electrospray ionization (ESI) source.\nAgilent XDB-C18, 2.1 × 30 mm, 3.5 µM column was used to analysis, 5 µL sample was injected. Analytical conditions: Mobile phases were 0.1% formic acid in water (A) and 0.1% formic acid in methanol (B). The flow rate was 0.4 mL/min.\nIn addition, Agilent 6330 series LC/MS/MS spectrometer was used for analysis, equipped with G1312A binary syringe pump, G1367A automatic sampler and G1314C UV detector; LC/MS/MS spectrometer used ESI radiation source. Optimum analysis was achieved using standards with appropriate cation model processing and MRM conversion for each analyte. A Capcell MP-C18 column, 100 × 4.6 mm I.D., 5 µM (Phenomenex, Torrance, California, USA) was used during the analysis. Mobile phase was 5 mM ammonium acetate, 0.1% methanol in water (A): 5 mM ammonium acetate, 0.1% methanol in acetonitrile (B) (70/30, v/v); flow rate was 0.6 mL/min; column temperature was maintained at room temperature; 20 µL of sample was injected.\nThe present invention evaluates the pharmacokinetic studies of the compounds of the present invention in mice, rats, dogs or monkeys. The compounds of the present invention were administered in the form of aqueous solution or 2% HPMC + 1% Tween-80 aqueous solution, 5% DMSO + 5% saline solution, 4% MC or capsule. For intravenous administration, animals were dosed at about 0.5, 0.6, 1 or 2 mg/kg. The oral doses (p.o.) were 5 or 10 mg/kg for rats and mice, and 10 mg/kg for dogs and monkeys. Bloods (0.3 mL) were taken at time points 0.25, 0.5, 1.0, 2.0, 3.0, 4.0, 6.0, 8.0, 12 and 24 h and centrifuged at 3,000 or 4,000 rpm for 10 min. Plasma solutions were collected and stored at -20° C. or -70° C. until LC/MS/MS analysis as described above. […] Table 2 is the experimental results of the pharmacokinetic characteristics of the compounds provided in the examples of the present invention in rats."}, "[3]": {"test_system": "CTLL-2 cells", "assay": "Inhibitory effect on CTLL-2 cell proliferation", "type": "cell-based", "details": "alamar blue, read-out: IC50 (nM) CTLL-2 (h)", "procedure": "CTLL-2, P-STAT3 and TF-1 cells were seeded in a 96-well culture plate at a density of 20,000/well with 90 µL per well, and the blank well was an equal amount of complete medium. 10 ul of different compound dilutions were added to each plate row BC, DE, and FG, and 5% DMSO medium with equal volume of the compound was added to positive wells and negative wells, and the final concentration of DMSO was 0.5%. After incubating in a 37° C. incubator for 20 h, alamar blue was added, the plate was incubated for 4 h, the fluorescence intensity of each well under the conditions of […], 580 nm wavelength was measured, and the IC50 value was calculated."}}, "note": "Read-outs that look alike come from different tables or passages of the source.", "data": [{"smiles": "CC(=O)Nc1cc2c(-c3ccc4c(n3)C3(CCOC3)OC4)cn(C)c2cn1", "note": "(stereo not shown) [Example 2, N-(3-(4,5-Dihydro-2H,5′H-Spiro[Furan-3,7′-Furo[3,4-b]Pyridin]-2′-yl)-1-Methyl-1H-Pyrrolo[2,3-c]Pyridin-5-yl)Acetamide]", "values": [{"measurement": "CLint scaled", "setting": "[1]; pH 7.4, in vivo intrinsic hepatic clearance extrapolated", "result": 15.4, "unit": "mL/min/kg"}, {"measurement": "half-life", "setting": "[1]; rat, pH 7.4, read-out: Rat T½", "result": 2.69, "unit": "h"}, {"measurement": "AUC(0-t)", "setting": "[2]; IV 1 mg/kg", "result": 1140, "unit": "ng·h/mL"}, {"measurement": "Cmax", "setting": "[2]; IV 1 mg/kg", "result": 1010, "unit": "ng/mL"}, {"measurement": "half-life", "setting": "[2]; IV 1 mg/kg", "result": 0.971, "unit": "h"}, {"measurement": "AUC(0-t)", "setting": "[2]; PO 5 mg/kg", "result": 9430, "unit": "ng·h/mL"}, {"measurement": "Cmax", "setting": "[2]; PO 5 mg/kg", "result": 1990, "unit": "ng/mL"}, {"measurement": "half-life", "setting": "[2]; PO 5 mg/kg", "result": 2.71, "unit": "h"}, {"measurement": "bioavailability", "setting": "[2]; oral bioavailability, PO 5 mg/kg", "result": 165, "unit": "%"}, {"measurement": "IC50", "setting": "[3]", "result": "> 10000", "unit": "nM"}]}]}
